Assay results reported in ChEMBL document CHEMBL5442175, “EUbOPEN Chemogenomics Library - PDSP Secondary Binding” (2024).
One block for each molecule: values may come before it.

Assays:
Histamine H4 receptor = Histamine H4 receptor (Homo sapiens, UniProt Q9H3N8); assay: (§1) PDSP Secondary Binding target: HRH4 - Compounds are tested at 10 uM concentration, plate are incubated at room temperature in the dark for 90 minutes. Reaction are stopped by vacuum filtration onto 0.3% polyethyleneimine soaked filter mats using Filtermate harvester. Scintillation cocktail is then melted onto microwave-dried filters on a hot plate and the radio activity is counted in Microbia counter.
[1] = target: Delta-type opioid receptor (Homo sapiens, UniProt P41143); assay: as §1, with “OPRD1” for “HRH4”
Delta-type opioid receptor, sequence (P41143 whole entry): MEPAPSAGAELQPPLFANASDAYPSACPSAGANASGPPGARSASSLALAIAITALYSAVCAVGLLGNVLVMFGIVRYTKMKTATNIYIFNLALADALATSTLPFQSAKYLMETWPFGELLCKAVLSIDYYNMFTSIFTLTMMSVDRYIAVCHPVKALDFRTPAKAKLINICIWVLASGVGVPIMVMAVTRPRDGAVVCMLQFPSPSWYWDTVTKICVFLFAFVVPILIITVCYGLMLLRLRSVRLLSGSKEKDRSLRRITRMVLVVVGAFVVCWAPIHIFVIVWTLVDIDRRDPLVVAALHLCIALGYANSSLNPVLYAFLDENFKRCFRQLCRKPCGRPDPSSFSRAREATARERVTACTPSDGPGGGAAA

[2] = target: Sodium-dependent dopamine transporter (Homo sapiens, UniProt Q01959); assay: as §1, with “SLC6A3” for “HRH4”
Sodium-dependent dopamine transporter, sequence (Q01959 whole entry): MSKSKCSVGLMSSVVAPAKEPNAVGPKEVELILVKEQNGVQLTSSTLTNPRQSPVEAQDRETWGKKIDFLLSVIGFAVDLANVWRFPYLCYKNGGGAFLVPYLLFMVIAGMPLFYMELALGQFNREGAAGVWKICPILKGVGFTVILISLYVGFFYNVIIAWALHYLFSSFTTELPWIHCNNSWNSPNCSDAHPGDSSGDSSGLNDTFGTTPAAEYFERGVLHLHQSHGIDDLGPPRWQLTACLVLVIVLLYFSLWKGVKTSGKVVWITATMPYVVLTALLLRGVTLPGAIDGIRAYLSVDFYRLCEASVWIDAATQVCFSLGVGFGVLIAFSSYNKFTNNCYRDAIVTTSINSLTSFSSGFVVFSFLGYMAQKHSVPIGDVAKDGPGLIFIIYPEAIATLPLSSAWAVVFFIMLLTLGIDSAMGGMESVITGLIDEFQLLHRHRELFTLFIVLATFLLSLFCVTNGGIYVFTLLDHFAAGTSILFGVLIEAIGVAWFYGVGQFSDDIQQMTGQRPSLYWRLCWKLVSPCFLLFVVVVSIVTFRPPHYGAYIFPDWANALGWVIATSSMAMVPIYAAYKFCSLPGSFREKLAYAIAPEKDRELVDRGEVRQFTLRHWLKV

[3] = target: Kappa-type opioid receptor (Homo sapiens, UniProt P41145); assay: as §1, with “OPRK1” for “HRH4”
Kappa-type opioid receptor, sequence (P41145 whole entry): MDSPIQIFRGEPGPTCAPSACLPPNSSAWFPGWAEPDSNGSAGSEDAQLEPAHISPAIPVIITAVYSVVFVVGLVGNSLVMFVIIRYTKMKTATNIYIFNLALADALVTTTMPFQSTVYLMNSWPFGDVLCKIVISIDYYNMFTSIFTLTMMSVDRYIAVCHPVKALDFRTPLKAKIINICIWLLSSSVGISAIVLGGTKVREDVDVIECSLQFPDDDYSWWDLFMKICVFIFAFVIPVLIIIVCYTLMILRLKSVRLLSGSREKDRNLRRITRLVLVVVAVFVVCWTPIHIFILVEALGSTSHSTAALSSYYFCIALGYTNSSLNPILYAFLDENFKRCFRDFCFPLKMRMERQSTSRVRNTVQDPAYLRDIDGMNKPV

Mu-type opioid receptor = Mu-type opioid receptor (Homo sapiens, UniProt P35372); assay: as §1, with “OPRM1” for “HRH4”
Mu-type opioid receptor, sequence (P35372 whole entry): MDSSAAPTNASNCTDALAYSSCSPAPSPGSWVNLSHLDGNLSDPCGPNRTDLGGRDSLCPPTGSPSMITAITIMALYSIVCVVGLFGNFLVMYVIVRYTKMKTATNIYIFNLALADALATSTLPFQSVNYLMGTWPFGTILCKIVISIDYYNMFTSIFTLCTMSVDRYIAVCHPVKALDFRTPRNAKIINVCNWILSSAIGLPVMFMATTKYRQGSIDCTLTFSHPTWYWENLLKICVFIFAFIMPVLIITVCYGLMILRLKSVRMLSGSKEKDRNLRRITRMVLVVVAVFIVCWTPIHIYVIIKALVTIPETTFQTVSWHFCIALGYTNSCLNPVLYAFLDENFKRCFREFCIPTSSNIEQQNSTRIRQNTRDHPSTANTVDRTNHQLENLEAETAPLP

[4] = target: Sigma non-opioid intracellular receptor 1 (Homo sapiens, UniProt Q99720); assay: as §1, with “SIGMAR1” for “HRH4”
Sigma non-opioid intracellular receptor 1, sequence (Q99720 whole entry): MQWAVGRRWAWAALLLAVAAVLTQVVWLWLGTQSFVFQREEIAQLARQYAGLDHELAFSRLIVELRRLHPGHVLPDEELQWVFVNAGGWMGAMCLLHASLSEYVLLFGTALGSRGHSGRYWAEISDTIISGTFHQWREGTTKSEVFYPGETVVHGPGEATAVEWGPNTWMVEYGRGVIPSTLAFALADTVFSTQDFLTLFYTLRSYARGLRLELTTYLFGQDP

[5] = target: T1, Muscarinic acetylcholine receptor M5 (Homo sapiens, UniProt P08912); assay: as §1, with “CHRM5” for “HRH4”
T1 sequence (P08912 whole entry): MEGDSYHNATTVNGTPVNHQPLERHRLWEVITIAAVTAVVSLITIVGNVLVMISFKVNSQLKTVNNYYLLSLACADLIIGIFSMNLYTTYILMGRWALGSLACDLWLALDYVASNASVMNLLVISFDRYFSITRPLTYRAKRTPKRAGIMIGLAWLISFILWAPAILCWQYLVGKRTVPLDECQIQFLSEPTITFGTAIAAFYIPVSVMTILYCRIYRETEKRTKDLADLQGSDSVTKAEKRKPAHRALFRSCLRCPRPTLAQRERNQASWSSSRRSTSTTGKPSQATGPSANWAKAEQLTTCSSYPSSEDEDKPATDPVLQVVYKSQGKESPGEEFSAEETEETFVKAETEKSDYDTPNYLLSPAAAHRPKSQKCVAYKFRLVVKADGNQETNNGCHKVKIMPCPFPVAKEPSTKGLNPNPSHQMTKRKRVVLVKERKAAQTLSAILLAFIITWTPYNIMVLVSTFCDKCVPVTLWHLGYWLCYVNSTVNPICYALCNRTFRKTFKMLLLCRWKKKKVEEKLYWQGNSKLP

[6] = target: T2, Alpha-2A adrenergic receptor (Homo sapiens, UniProt P08913); assay: as §1, with “ADRA2A” for “HRH4”
T2 sequence (P08913 whole entry): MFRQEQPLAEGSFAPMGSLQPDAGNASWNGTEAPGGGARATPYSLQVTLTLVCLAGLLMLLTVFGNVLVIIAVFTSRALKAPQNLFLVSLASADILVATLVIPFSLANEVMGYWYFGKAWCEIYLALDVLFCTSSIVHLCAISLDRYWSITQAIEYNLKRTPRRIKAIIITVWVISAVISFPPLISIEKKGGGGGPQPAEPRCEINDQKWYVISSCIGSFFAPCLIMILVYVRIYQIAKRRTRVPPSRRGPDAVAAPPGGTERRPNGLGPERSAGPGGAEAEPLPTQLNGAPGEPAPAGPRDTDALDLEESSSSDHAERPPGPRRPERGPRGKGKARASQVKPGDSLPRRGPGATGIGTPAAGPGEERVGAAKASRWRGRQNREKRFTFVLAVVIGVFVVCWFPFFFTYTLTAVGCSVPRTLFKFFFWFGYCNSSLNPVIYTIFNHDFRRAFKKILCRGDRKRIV

Histamine H3 receptor = Histamine H3 receptor (Homo sapiens, UniProt Q9Y5N1); assay: as §1, with “HRH3” for “HRH4”
Histamine H3 receptor, sequence (Q9Y5N1 whole entry): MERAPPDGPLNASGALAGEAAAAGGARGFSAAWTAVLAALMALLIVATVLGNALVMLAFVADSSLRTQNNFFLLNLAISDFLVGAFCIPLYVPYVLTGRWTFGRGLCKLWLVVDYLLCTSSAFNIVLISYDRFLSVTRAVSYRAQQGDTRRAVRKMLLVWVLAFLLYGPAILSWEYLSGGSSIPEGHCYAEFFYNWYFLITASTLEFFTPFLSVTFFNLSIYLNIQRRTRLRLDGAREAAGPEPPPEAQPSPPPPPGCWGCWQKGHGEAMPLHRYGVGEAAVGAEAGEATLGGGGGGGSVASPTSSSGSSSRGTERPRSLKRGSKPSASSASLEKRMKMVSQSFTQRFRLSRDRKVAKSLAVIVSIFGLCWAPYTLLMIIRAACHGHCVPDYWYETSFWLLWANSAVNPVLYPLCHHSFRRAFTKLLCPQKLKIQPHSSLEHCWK

Histamine H1 receptor = Histamine H1 receptor (Homo sapiens, UniProt P35367); assay: as §1, with “HRH1” for “HRH4”
Histamine H1 receptor, sequence (P35367 whole entry): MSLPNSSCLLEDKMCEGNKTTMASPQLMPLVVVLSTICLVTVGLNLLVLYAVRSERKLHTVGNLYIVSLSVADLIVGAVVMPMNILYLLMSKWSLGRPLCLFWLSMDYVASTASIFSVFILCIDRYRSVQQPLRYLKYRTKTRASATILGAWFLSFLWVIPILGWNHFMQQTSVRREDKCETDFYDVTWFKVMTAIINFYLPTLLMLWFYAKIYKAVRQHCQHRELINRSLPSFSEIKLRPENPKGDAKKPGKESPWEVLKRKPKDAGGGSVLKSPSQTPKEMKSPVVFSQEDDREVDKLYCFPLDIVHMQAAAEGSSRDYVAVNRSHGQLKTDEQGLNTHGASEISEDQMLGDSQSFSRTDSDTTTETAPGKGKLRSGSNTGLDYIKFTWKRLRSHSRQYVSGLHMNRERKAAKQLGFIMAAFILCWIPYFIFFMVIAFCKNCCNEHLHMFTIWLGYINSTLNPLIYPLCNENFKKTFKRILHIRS

[7] = target: Sodium-dependent noradrenaline transporter (Homo sapiens, UniProt P23975); assay: as §1, with “SLC6A2” for “HRH4”
Sodium-dependent noradrenaline transporter, sequence (P23975 whole entry): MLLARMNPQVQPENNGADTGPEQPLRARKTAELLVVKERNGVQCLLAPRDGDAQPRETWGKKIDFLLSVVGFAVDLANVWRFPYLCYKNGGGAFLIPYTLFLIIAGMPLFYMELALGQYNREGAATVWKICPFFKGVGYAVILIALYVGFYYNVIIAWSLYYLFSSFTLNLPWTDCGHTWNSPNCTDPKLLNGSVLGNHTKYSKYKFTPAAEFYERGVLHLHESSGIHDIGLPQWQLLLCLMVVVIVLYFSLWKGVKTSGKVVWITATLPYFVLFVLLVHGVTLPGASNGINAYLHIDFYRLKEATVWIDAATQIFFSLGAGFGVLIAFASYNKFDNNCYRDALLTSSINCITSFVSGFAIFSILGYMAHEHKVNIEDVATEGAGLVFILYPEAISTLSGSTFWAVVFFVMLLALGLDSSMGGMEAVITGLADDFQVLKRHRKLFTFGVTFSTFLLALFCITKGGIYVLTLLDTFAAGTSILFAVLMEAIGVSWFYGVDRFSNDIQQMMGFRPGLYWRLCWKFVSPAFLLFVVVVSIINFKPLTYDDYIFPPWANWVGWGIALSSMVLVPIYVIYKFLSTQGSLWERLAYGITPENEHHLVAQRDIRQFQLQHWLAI

[8] = target: 5-hydroxytryptamine receptor 2A (Homo sapiens, UniProt P28223); assay: as §1, with “HTR2A” for “HRH4”
[9] = target: Sigma intracellular receptor 2 (Homo sapiens, UniProt Q5BJF2); assay: as §1, with “TMEM97” for “HRH4”
Sigma intracellular receptor 2, sequence (Q5BJF2 whole entry): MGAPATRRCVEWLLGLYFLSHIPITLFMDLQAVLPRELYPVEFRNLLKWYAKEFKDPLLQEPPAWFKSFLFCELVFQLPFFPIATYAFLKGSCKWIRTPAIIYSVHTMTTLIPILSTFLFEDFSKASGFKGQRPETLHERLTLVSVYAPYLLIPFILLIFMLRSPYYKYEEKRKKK

[10] = target: T3, Muscarinic acetylcholine receptor M4 (Homo sapiens, UniProt P08173); assay: as §1, with “CHRM4” for “HRH4”
T3 sequence (P08173 whole entry): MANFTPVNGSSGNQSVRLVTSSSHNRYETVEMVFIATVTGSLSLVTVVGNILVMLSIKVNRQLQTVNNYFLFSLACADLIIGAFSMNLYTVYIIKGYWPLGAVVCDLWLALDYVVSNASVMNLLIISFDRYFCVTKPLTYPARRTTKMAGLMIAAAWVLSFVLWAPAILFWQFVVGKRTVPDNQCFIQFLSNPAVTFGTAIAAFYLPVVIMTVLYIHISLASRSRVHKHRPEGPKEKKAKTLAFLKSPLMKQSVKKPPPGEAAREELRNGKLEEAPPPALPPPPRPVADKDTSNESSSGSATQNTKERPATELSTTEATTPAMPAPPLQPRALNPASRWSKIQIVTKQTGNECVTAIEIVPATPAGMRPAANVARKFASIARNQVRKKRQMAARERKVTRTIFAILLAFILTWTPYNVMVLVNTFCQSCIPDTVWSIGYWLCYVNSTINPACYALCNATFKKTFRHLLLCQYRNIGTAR

Histamine H2 receptor = Histamine H2 receptor (Homo sapiens, UniProt P25021); assay: as §1, with “HRH2” for “HRH4”
Histamine H2 receptor, sequence (P25021 whole entry): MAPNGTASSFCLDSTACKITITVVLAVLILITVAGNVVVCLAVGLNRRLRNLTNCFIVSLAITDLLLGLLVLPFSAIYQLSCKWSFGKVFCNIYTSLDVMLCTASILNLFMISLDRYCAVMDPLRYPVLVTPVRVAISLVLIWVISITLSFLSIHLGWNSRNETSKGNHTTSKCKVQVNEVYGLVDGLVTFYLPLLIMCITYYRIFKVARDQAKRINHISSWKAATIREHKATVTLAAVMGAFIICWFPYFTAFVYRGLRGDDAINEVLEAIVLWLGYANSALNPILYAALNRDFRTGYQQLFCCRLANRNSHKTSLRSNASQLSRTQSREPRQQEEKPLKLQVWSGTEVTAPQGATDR

[11] = target: Muscarinic acetylcholine receptor M3 (Homo sapiens, UniProt P20309); assay: as §1, with “CHRM3” for “HRH4”
[12] = target: T4, Muscarinic acetylcholine receptor M1 (Homo sapiens, UniProt P11229); assay: as §1, with “CHRM1” for “HRH4”
T4 sequence (P11229 whole entry): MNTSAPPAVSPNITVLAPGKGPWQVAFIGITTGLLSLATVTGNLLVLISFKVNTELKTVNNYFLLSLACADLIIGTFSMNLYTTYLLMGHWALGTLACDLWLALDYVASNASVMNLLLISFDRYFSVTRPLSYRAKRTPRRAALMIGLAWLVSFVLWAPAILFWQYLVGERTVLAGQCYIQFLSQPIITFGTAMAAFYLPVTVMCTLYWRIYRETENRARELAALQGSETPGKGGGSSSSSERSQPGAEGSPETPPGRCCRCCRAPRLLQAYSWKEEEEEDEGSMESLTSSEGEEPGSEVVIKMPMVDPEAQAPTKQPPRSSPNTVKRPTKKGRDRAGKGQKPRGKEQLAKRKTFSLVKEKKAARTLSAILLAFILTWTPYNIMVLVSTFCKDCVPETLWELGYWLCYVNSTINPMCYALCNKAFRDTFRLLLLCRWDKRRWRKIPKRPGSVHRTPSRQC

[13] = target: Beta-2 adrenergic receptor (Homo sapiens, UniProt P07550); assay: as §1, with “ADRB2” for “HRH4”
Beta-2 adrenergic receptor, sequence (P07550 whole entry): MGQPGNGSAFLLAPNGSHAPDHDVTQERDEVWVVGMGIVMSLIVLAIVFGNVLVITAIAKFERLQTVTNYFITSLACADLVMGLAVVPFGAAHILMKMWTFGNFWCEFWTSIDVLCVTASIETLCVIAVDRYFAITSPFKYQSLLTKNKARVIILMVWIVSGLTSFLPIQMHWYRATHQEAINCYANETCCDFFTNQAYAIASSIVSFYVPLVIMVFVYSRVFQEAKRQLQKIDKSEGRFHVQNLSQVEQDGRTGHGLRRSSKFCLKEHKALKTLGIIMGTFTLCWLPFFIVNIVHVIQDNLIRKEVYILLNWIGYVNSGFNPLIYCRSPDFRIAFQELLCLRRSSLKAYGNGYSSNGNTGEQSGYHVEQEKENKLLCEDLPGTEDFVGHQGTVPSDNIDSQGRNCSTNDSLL

D(4) dopamine receptor = target: T5, D(4) dopamine receptor (Homo sapiens, UniProt P21917); assay: as §1, with “DRD4” for “HRH4”
T5 sequence (P21917 whole entry): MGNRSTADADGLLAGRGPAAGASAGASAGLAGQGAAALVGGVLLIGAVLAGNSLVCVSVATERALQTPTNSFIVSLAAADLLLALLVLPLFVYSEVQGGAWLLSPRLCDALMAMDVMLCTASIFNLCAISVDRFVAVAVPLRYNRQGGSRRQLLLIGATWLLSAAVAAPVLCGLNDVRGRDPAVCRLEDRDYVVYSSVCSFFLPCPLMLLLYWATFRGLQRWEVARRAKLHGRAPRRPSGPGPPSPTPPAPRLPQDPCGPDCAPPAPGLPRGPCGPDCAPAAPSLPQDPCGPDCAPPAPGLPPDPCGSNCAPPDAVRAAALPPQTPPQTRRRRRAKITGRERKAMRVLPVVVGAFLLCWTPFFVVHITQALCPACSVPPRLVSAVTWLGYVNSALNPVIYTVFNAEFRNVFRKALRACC

[14] = target: T6, Muscarinic acetylcholine receptor M2 (Homo sapiens, UniProt P08172); assay: as §1, with “CHRM2” for “HRH4”
T6 sequence (P08172 whole entry): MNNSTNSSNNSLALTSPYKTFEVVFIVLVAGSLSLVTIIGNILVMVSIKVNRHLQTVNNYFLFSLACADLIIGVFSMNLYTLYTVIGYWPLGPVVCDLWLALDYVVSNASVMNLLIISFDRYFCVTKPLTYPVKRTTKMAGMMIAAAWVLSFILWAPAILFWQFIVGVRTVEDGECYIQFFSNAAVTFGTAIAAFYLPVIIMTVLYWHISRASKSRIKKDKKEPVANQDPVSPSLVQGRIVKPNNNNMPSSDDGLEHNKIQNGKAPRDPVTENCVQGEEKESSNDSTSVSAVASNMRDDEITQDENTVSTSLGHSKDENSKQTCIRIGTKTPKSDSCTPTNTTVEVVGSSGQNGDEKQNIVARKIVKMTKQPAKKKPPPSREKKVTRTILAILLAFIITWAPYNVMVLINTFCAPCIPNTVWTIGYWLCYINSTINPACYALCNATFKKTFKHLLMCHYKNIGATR

D(3) dopamine receptor = D(3) dopamine receptor (Homo sapiens, UniProt P35462); assay: as §1, with “DRD3” for “HRH4”
D(3) dopamine receptor, sequence (P35462 whole entry): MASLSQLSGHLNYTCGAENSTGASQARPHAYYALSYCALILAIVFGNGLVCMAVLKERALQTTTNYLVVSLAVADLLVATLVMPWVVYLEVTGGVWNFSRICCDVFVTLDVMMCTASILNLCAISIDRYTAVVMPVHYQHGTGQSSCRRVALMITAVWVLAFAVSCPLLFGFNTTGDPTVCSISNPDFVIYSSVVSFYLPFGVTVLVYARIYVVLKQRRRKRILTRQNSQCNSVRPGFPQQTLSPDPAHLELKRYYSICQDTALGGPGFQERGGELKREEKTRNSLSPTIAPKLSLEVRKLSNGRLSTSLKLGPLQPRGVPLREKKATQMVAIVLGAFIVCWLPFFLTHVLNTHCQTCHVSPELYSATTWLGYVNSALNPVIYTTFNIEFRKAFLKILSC

SMILES: C[C@@H](N)Cc1c[nH]cn1
Ki (Histamine H4 receptor): 0.169 µM

Ki [1]: > 10 µM
Ki [2]: 3.19 µM
SMILES: N#Cc1c(N)nc(SCc2csc(-c3ccc(Cl)cc3)n2)c(C#N)c1-c1ccc(OCCO)cc1 [CAPADENOSON]

SMILES: C=CCN1C[C@H](C)N([C@H](c2ccc(C(=O)N(CC)CC)cc2)c2cccc(O)c2)C[C@H]1C
Ki [3]: 0.0233 µM
Ki (Mu-type opioid receptor): 0.0147 µM
Ki [1]: 0.00385 µM
Ki [4]: 0.108 µM

SMILES: CN(C(=O)Cc1ccc(Cl)c(Cl)c1)C(CN1CCCC1)c1cccc(OCC(=O)O)c1 (stereo not drawn)
Ki (Mu-type opioid receptor): 0.323 µM
Ki [1]: 0.411 µM
Ki [5]: 5.91 µM

Ki [6]: 4.04 µM
Ki (Histamine H4 receptor): 0.00486 µM
Ki (Histamine H3 receptor): 0.000632 µM
SMILES: N=C(N)SCCc1cnc[nH]1

Ki (Histamine H1 receptor): 1.45 µM
Ki [7]: > 10 µM
Ki [8]: > 10 µM
Ki [9]: 8.12 µM
Ki [1]: > 10 µM
SMILES: Cc1c(C2=CCN(C(=O)N(C)C(C)C)CC2)nnn1-c1cccnc1F

Ki [10]: 0.181 µM
Ki (Histamine H2 receptor): 3.3 µM
Ki [11]: 1.53 µM
Ki [12]: 0.846 µM
Ki [13]: > 10 µM
Ki (D(4) dopamine receptor): 1.36 µM
Ki [5]: 0.662 µM
Ki [14]: 0.243 µM
Ki (D(3) dopamine receptor): 0.48 µM
Ki [4]: 0.52 µM
SMILES: Cc1cn2cc(CC(=O)N3CCC4(CC3)CN(Cc3ccc(-n5nccn5)cc3Cl)C4)nc2s1
